Here are results for eleven compounds from patent US9636335B2, “Heteroaryl compounds as 5-HT4 receptor ligands” (Suven Life Sciences Ltd, priority 2011, dated 2017).

Data set [1] deals with recombinant human 5-HT4 receptor (Homo sapiens (Human), UniProt Q13639). The experiment in a line: Determination of EC50 values for 5-HT4 receptor (CHO cells, pCRE-Luc reporter). The format is cell-based. The settings on record: CHO cells expressing human 5-HT4 receptor, luciferase activity, 4 hours incubation. On the procedure:
A stable CHO cell line expressing recombinant human 5-HT4 receptor and pCRE-Luc reporter system was used for cell-based assay. The assay offers a non-radioactive based approach to determine binding of a compound to GPCRs. In this specific assay, the level of intracellular cyclic AMP which is modulated by activation or inhibition of the receptor is measured. The recombinant cells harbor luciferase reporter gene under the control of cAMP response element.
The above cells were grown in 96 well clear bottom white plates in Hams F12 medium containing 10% fetal bovine serum (FBS). Prior to the addition of compounds or standard agonist, cells were serum starved overnight. Increasing concentrations of test compounds were added in OptiMEM medium to the cells. The incubation was continued at 37° C. in CO2 incubator for 4 hours. Medium was removed and cells were washed with phosphate buffered saline. The cells were lysed and luciferase activity was measured in a Luminometer. Luminescence units were plotted against the compound concentrations using Graphpad software.

Data set [2] can be described thus: Rodent pharmacokinetic study. The settings on record: plasma. The format is in vivo, Male Wister rats. As to the method: Three to five animals were housed in each cage. […] Animals were fasted over night before oral dosing (p.o) and food pellets were allowed 2 hours post dosing, whereas intravenous dosing food and water were provided as ad libitum. Three rats were dosed with compounds of formula (I) (10 mg/kg) orally and intravenously (05 mg/kg).
At each time point blood was collected through jugular vein and immediately replenish with an equivalent volume of normal saline from freely moving rats. Collected blood was transferred into a labeled eppendr off containing 10 μL of heparin as anticoagulant. Typically blood samples were collected as following time points: Pre dose, 0.08 (only i.v.), 0.25, 0.5, 1, 2, 4, 6, 8, and 24 hours post dose (n=3). Blood was centrifuged at 4000 rpm for 10 minutes. Plasma was prepared and stored frozen at −20° C. until analysis.
Pharmacokinetic parameters Cmax, Tmax, AUCt, T1/2 and Bioavailability were calculated by non-compartmental model using standard non-compartmental model by using WinNonLin 5.0.1 or Phoenix WinNonlin 6.2 version Software package.

The test system of another data set is Male Wister rats. The experiment in a line: Object recognition task model. The format is in vivo. The settings on record: p.o., rat. On the procedure:
(§1) The cognition enhancing properties of compounds of this invention were estimated by using this model.
Male Wister rats (230-280 grams) were used as experimental animals. Four animals were housed in each cage. […] Also the rats were habituated to individual arenas for 1 hour in the absence of any objects.
One group of 12 rats received vehicle (1 mL/Kg) orally and another set of animals received compound of the formula (I) either orally or i.p., before one hour of the familiar (T1) and choice trial (T2).
The experiment was carried out in a 50×50×50 cm open field made up of acrylic. In the familiarization phase, (T1), the rats were placed individually in the open field for 3 minutes, in which two identical objects (plastic bottles, 12.5 cm height×5.5 cm diameter) covered in yellow masking tape alone (a1 and a2) were positioned in two adjacent corners, 10 cms from the walls. After 24 hours of the (T1) trial for long-term memory test, the same rats were placed in the same arena as they were placed in T1 trial. Choice phase (T2) rats were allowed to explore the open field for 3 minutes in presence of one familiar object (a3) and one novel object (b) (Amber color glass bottle, 12 cm high and 5 cm in diameter). Familiar objects presented similar textures, colors and sizes. During the T1 and T2 trial, explorations of each object (defined as sniffing, licking, chewing or having moving vibrissae whilst directing the nose towards the object at a distance of less than 1 cm) were recorded separately by stopwatch. […] T1 is the total time spent exploring the familiar objects (a1+a2). T2 is the total time spent exploring the familiar object and novel object (a3+b).

Data set [3] is described as follows: Rodent brain penetration study. The settings on record: male, Wistar, rat, po, 10 mg/kg.
Method: Three animals were housed in each cage. Animals were given water and food ad libitum throughout the experiment, and maintained on a 12 hours light/dark cycle.
Brain penetration was determined in discrete manner in rats. […] After acclimatization the rats were grouped according to the weight in each group, 3 animals were kept in individual cage and allowed free access to food and water. At each time point (0.50, 1, and 2 hours) n=3 animals were used.
The compounds of formula (I) was suitably preformulated and administered orally at (free base equivalent) 10 mg/kg. Blood samples were removed via, cardiac puncture by using isoflurane anesthesia the animals were sacrificed to collect brain tissue. […] The concentrations of the NCE compound in plasma and Brain were determined using LC-MS/MS method.
Extent of brain-plasma ratio was calculated (Cb/Cp).
The test system of the next data set is rats. The experiment in a line: Radial arm maze, reversal of scopolamine induced amnesia. The format is in vivo. The settings on record: p.o., rat.
Text: as §1

[4] abbreviates: Wistar/Male rat, 5 mg/kg, intravenous (bolus).
The mark [5] stands for this setting: Wistar/Male rat, 10 mg/kg oral vs 5 mg/kg intravenous.
Where [6] appears, read: Wistar/Male rat, 10 mg/kg, oral (gavage).
[7] abbreviates: male, Wistar, rat, po, 10 mg/kg.

Structures are written as SMILES. Structures can show the parent of a compound that is named as a salt.

recombinant human 5-HT4 receptor, sequence (Q13639 whole entry): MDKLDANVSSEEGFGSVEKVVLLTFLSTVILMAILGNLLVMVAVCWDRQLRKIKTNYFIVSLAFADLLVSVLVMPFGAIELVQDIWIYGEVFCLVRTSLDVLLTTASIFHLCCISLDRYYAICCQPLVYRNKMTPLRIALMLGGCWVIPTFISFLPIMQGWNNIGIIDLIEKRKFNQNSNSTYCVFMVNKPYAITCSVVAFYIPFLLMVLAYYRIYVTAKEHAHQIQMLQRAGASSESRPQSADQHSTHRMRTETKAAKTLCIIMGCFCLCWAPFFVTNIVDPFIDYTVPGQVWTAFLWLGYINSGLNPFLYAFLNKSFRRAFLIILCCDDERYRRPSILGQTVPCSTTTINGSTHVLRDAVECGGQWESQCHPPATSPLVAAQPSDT

For `COCCN1CCC(c2nnc(-c3cc(Cl)c(N)c4c3OCCC4)o2)CC1` [Example 8, 6-Chloro-8-{5-[1-(2-methoxy-ethyl)-piperidin-4-yl]-[1,3,4]oxadiazol-2-yl}-chroman-5-ylamine], the EC50 in data set [1] turned out to be 15.6 nM. Moreover, in data set [2] (setting [4]), the AUC(0-t) amounted to 1320 ± 527 ng·h/mL, the peak level (Cmax) was 1280 ± 239 ng/mL, the Tmax is 4.8 min and the half-life is 61.8 ± 8.4 min. Also, the bioavailability in data set [2] (setting [5]) turned out to be 72 ± 22%. In data set [2] (setting [6]), the AUC(0-t) amounted to 1760 ± 89 ng·h/mL, the Cmax is 918 ± 46 ng/mL, the Tmax was found to be 19.8 ± 8.4 min and the half-life is 60.6 ± 4.8 min. Further, in the data set on Male Wister rats (3 mg/kg), the “Exploration time mean ± S.E.M, Familiar object” value stood at 10.45 ± 1.162 s; the “Exploration time mean ± S.E.M, Novel object” value was determined as 17.59 ± 2.95 s; the Inference entry is “Active”. In data set [3] (brain homogenate and plasma), this compound had a Kp of 0.56 ± 0.08.

For the compound `CC(C)CCN1CCC(c2nnc(-c3cc(Cl)c(N)c4c3OCCC4)o2)CC1` [Example 9, 6-Chloro-8-{5-[1-(3-methyl-butyl)-piperidin-4-yl]-[1,3,4]oxadiazol-2-yl}-chroman-5-ylamine], the EC50 in data set [1] was 2.4 nM. Further, in data set [2] (setting [4]), the AUC(0-t) amounted to 836 ± 374 ng·h/mL, the highest level (Cmax) was 792 ± 111 ng/mL, the Tmax came out at 4.8 min and the half-life was 82.8 ± 39.6 min. Besides, the bioavailability in data set [2] (setting [5]) worked out at 66 ± 21%. In data set [2] (setting [6]), the AUC(0-t) amounted to 1210 ± 941 ng·h/mL, the concentration peaked (Cmax) at 412 ± 177 ng/mL, the time to peak (Tmax) came to 40.2 ± 14.4 min and the half-life is 89.4 ± 38.4 min. For the same compound, in the data set on Male Wister rats (3 mg/kg), the “Exploration time mean ± S.E.M, Familiar object” value came to 11.21 ± 2.18 s; the “Exploration time mean ± S.E.M, Novel object” value amounted to 16.47 ± 1.18 s; the Inference entry is “Active”.

Consider `Nc1c(Cl)cc(-c2nnc(C3CCN(C4CCC4)CC3)o2)c2c1CCCO2` [Example 14, 6-Chloro-8-[5-(1-cyclobutyl-piperidin-4-yl)-[1,3,4]oxadiazol-2-yl]-chroman-5-ylamine], for which the EC50 in data set [1] stood at 1.3 nM. Further, in data set [2] (setting [4]), the AUC(0-t) was determined as 773 ± 45 ng·h/mL, the peak level (Cmax) was 783 ± 124 ng/mL, the Tmax was found to be 4.8 min and the half-life was 73.2 ± 15.6 min. Further, the bioavailability in data set [2] (setting [5]) worked out at 42 ± 10%. For the same compound, in data set [2] (setting [6]), the AUC(0-t) is 645 ± 136 ng·h/mL, the highest level (Cmax) was 513 ± 125 ng/mL, the Tmax was found to be 15 min and the half-life is 57.6 ± 6.6 min. In the data set on Male Wister rats (1 mg/kg), the “Exploration time mean ± S.E.M, Familiar object” value came out at 5.06 ± 1.32 s; the “Exploration time mean ± S.E.M, Novel object” value came to 12.68 ± 1.14 s; the Inference entry is “Active”. For the same compound, the “Reversal of Scopolamine Induced amnesia - Effective dose range” value in the data set on rats is reported as 1-10 mg/kg, p.o. Further, in data set [3] (brain homogenate and plasma), the Kp is 2.24 ± 0.09.

As for `Nc1c(Cl)cc(-c2nnc(C3CCN(C4CCC4)CC3)o2)c2c1OCCO2` [Example 16, 6-Chloro-8-[5-(1-cyclobutyl-piperidin-4-yl)-[1,3,4]oxadiazol-2-yl]-2,3-dihydro-benzo[1,4]dioxin-5-ylamine], the EC50 in data set [1] amounted to 13.3 nM. Also, in the data set with Male Wister rats (10 mg/kg), the “Exploration time mean ± S.E.M, Familiar object” value came to 8.03 ± 1.58 s; the “Exploration time mean ± S.E.M, Novel object” value came to 13.94 ± 1.76 s; the Inference result is given as “Active”.

For the compound `CCOC(=O)N1CCC(N2CCC(c3nnc(-c4cc(Cl)c(N)c5c4OCCC5)o3)CC2)CC1` [Example 19, 4-[5-(5-Amino-6-chloro-chroman-8-yl)-[1,3,4]oxadiazol-2-yl]-[1,4′]bipiperidinyl-1′-carboxylic acid ethyl ester], the 50% effective concentration (EC50) in data set [1] stood at 6.8 nM. For the same compound, in data set [2] (setting [4]), the AUC(0-t) came to 2370 ± 90 ng·h/mL, the highest level (Cmax) was 1860 ± 115 ng/mL, the Tmax worked out at 4.8 min and the half-life is 133 ± 13.8 min. The bioavailability in data set [2] (setting [5]) stood at 101 ± 1%. Besides, in data set [2] (setting [6]), the AUC(0-t) amounted to 4814 ± 30 ng·h/mL, the Cmax stood at 1760 ± 264 ng/mL, the Tmax was 30 min and the half-life was 88.8 ± 10.8 min. Also, in the data set on Male Wister rats (10 mg/kg), the “Exploration time mean ± S.E.M, Familiar object” value worked out at 7.19 ± 0.65 s; the “Exploration time mean ± S.E.M, Novel object” value is 13.21 ± 2.1 s; the Inference entry is on record as “Active”.

For the compound `Nc1c(Cl)cc(-c2nnc(CCCN3CCCCC3)o2)c2c1CCCO2.O=C(O)C(O)C(O)C(=O)O` [Example 20, 6-Chloro-8-[5-(3-piperidin-1-yl-propyl)-[1,3,4]oxadiazol-2-yl]-chroman-5-ylamine tartarate salt], the EC50 in data set [1] was 104 nM. Moreover, in data set [2] (setting [4]), the exposure AUC(0-t) was found to be 867 ± 173 ng·h/mL, the Cmax is 976 ± 305 ng/mL, the Tmax was determined as 4.8 min and the half-life was 48 ± 3.6 min. Further, in data set [2] (setting [5]), the bioavailability turned out to be 46 ± 9%. Further, in data set [2] (setting [6]), the AUC(0-t) was determined as 790 ± 153 ng·h/mL, the Cmax amounted to 602 ± 35 ng/mL, the time of peak concentration (Tmax) was determined as 15 min and the half-life was 61.8 ± 1.2 min. In the data set on Male Wister rats (3 mg/kg), the “Exploration time mean ± S.E.M, Familiar object” value turned out to be 4.69 ± 0.79 s; the “Exploration time mean ± S.E.M, Novel object” value is 11.04 ± 1.33 s; the Inference result is listed as “Active”. Moreover, in data set [3] (brain homogenate and plasma), the Kp amounted to 0.5 ± 0.07.

As for `Nc1c(Cl)cc(-c2nnc(CC3CCN(C4CCCC4)CC3)o2)c2c1CCCO2.O=C(O)C(=O)O` [Example 21, 6-Chloro-8-[5-(1-cyclopentyl-piperidin-4-ylmethyl)-[1,3,4]oxadiazol-2-yl]-chroman-5-ylamine oxalate salt], the EC50 in data set [1] was 71.2 nM. Moreover, in data set [2] (male, Wistar, rat, iv, 5 mg/kg), the AUC(0-t) was determined as 876 ± 65 ng·h/mL, the concentration peaked (Cmax) at 750 ± 14 ng/mL, the Tmax was 4.8 min and the half-life is 107 ± 25.8 min. Besides, in data set [2] (setting [7]), the AUC(0-t) came to 1490 ± 72 ng·h/mL, the peak level (Cmax) was 553 ± 53 ng/mL, the Tmax was determined as 25.2 ± 7.2 min and the bioavailability was determined as 85 ± 4%. Further, the half-life in data set [2] (setting [7]) was 94.2 ± 6.6 min. In data set [3] (brain homogenate and plasma), this compound yielded a Kp of 0.62 ± 0.05.

Turning to `Nc1c(Cl)cc(-c2nnc(C3CCN(C4CCOCC4)CC3)o2)c2c1CCCO2.O=C(O)C(=O)O` [Example 25, 6-Chloro-8-{5-[1-(tetrahydro-pyran-4-yl)-piperidin-4-yl]-[1,3,4]oxadiazol-2-yl}-chroman-5-ylamine oxalate salt], the EC50 in data set [1] turned out to be 5.7 nM. In addition, in the data set with Male Wister rats (3 mg/kg), the “Exploration time mean ± S.E.M, Familiar object” value stood at 5.93 ± 0.87 s; the “Exploration time mean ± S.E.M, Novel object” value amounted to 14.70 ± 2.34 s; the Inference entry is “Active”.

Regarding `Nc1c(Cl)cc(-c2nnc(C3CCN(CC4CCOCC4)CC3)o2)c2c1CCCO2.O=C(O)C(=O)O` [Example 26, 6-Chloro-8-{5-[1-(tetrahydro-pyran-4-ylmethyl)-piperidin-4-yl]-[1,3,4]oxadiazol-2-yl}-chroman-5-ylamine oxalate salt], in data set [1], the EC50 is 18 nM. In the data set on Male Wister rats (3 mg/kg), the “Exploration time mean ± S.E.M, Familiar object” value was determined as 7.12 ± 1.44 s; the “Exploration time mean ± S.E.M, Novel object” value was 14.42 ± 2.22 s; the Inference result was “Active”.

With `CC(C)n1nc(-c2nnc(C3CCN(C4CCC4)CC3)o2)c2ccccc21` [Example 37, 3-[5-(1-Cyclobutyl-piperidin-4-yl)-[1,3,4]oxadiazol-2-yl]-1-isopropyl-1H-indazole], the Kp in data set [3] (in vivo) came out at 5.68 ± 1.74.

`CC(C)n1nc(-c2nnc(C3CCN(C4CCOCC4)CC3)o2)c2ccccc21` [Example 48, 1-Isopropyl-3-{5-[1-(tetrahydro-pyran-4-yl)-piperidin-4-yl]-[1,3,4]oxadiazol-2-yl}-1H-indazole oxalate salt]: in data set [3] (in vivo), the Kp came out at 2.55 ± 0.32.

A word on the EC50: it is the concentration at which the effect is half-maximal. Usually AUC(0-t) stands for the area under the concentration-time curve up to a stated or last time point. Lower therefore signals less exposure. What is called Cmax is the highest concentration seen after dosing. One may read the Tmax as the time at which the peak concentration occurs. A word on the half-life: it is the time in which the quantity being followed falls by half. The low end stands for rapid decline, the high end for slow decline.
